Tests used:
[1] = target: T1, LAT1 (Mus musculus, UniProt Q9Z127); experiment: Transporter-mediated cellular uptake into primary astrocytes, primary mechanism (Eadie-Hofstee); assay type: in vitro ADME; details: Eadie-Hofstee analysis, mean ± SD, n = 3
T1 construct: mouse primary astrocytes, from which we have recently characterized LAT1 expression and function; endogenous in cells; host or cells: mouse primary astrocytes (cortex and hippocampi of 2-day-old wild-type and APP/PS1 mice)
Protocol: (§1) For the cell uptake experiments, the astrocytes were seeded on 24-well plates with a density of 10 × 10^4 cells/well three days before the experiments as described earlier. Cellular uptake of derivatives 1-3 of FA was studied by incubating the cells at 37°C for 30 min (uptake was linear with all compounds up to 30 min) with compounds at the concentration of 1-200 μM in prewarmed HBSS buffer (250 μL). […]; Agilent Technologies, Santa Clara, CA). The concentrations of each compound in cell lysates were calculated from the standard curve that was prepared by spiking known amounts of compounds to ACN including the selected internal standard and then normalized with protein concentration. The protein concentrations on each plate were determined as a mean of three samples by Bio-Rad Protein Assay, based on the Bradford dye-binding method, using bovine serum albumin (BSA) as a standard protein and measuring the absorbance (595 nm) by a multiplate reader (EnVision, PerkinElmer, Inc., Waltham, MA, USA).
(§2) All the cellular studies were carried out as three biological replicates from the same cell passage. The function of LAT1 was followed between the used cell passages (7-16) with a LAT1 probe substrate, [^14C]-L-leucine, and noticed to be unaltered. All statistical analyses, including Michaelis-Menten, Eadie-Hofstee, and Hanes-Woolf analyses, were performed using GraphPad Prism v. 5.03 software (GraphPad Software, San Diego, CA, USA). Statistical differences between groups were tested using one-way ANOVA, followed by Tukey's multiple comparison test, and presented as the mean ± SD, with significant differences denoted by asterisks (^∗P < 0.05, ^∗∗P < 0.01, and ^∗∗∗P < 0.001).

[2] = test system: OATP/OAT; experiment: Transporter-mediated cellular uptake into primary astrocytes, secondary mechanism (Eadie-Hofstee); assay type: in vitro ADME, mouse; details: Eadie-Hofstee analysis, mean ± SD, n = 3
Protocol: as §1, §2

[3] = target: T2, acetylcholinesterase (AChE) (Mus musculus, UniProt P21836); experiment: biochemical; assay type: biochemical; details: for Vmax of AChE activity in the presence of derivative (Hanes-Woolf plot): 16-66 μM derivative, Crtl Vmax = 2.21
T2 construct: mouse brain S9 fraction was prepared by homogenizing freshly collected mouse brain; from tissue; host or cells: mouse brain S9 fraction (9 000 x g supernatant)
T2 sequence (P21836 32-614): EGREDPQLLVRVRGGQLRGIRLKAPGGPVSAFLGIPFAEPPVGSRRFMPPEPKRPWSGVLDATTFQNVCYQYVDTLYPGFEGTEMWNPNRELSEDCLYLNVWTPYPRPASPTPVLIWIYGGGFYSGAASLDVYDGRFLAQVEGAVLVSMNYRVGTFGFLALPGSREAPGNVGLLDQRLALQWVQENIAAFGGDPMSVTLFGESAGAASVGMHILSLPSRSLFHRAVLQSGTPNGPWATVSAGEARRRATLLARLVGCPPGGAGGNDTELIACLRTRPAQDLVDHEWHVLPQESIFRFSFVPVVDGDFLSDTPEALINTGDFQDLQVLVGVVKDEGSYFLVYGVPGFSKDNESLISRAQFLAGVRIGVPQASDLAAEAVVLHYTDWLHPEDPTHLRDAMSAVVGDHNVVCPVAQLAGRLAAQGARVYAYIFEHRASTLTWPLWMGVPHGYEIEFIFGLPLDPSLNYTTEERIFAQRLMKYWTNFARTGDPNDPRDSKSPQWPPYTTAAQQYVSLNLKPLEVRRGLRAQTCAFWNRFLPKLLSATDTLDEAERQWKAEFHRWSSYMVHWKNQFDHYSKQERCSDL
Protocol: Briefly, mouse brain S9 fraction was prepared by homogenizing freshly collected mouse brain with 50 mM Tris-buffered saline (TBS) (pH 7.4) (1 : 4, w/v), centrifuging the homogenate at 9 000 × g for 20 min at 4°C and collecting the supernatant. The supernatant was then diluted at 1 : 10 with phosphate-buffered saline (100 mM; pH 7.0) and mixed with Ellman's reagent (5,5′-dithiobis-(2-nitrobenzoic acid); DTNB; 1 mM) and studied compounds in DMSO (DMSO concentration was less than 0.5%) on a 96-well plate as 3 parallel assays.
According to the Hanes-Woolf plots, the ratio of initial substrate concentration to the reaction velocity ([S]/v) was plotted against the substrate concentration (μM).

[4] = test system: mTOR; experiment: Total amount of mTOR (ELISA) in cells; assay type: cell-based, mouse; details: 100 μM; 48 h
Protocol: Enzyme-Linked Immunosorbent Assay (ELISA) kits were used (mTOR SimpleStep ELISA Kit and NFκB p65 Total SimpeStep ELISA Kit, Abcam, Cambridge, UK) to quantify mammalian (or mechanistic) target of rapamycin (mTOR) and transcription factor NF-κB amounts, respectively. […] The control wells were treated with the solvent only (0.5% DMSO). Cells were solubilized using the provided extraction buffer with the kit, incubated on ice for 20 minutes and centrifuged at 18 000 × g for 20 min at 4°C. The supernatants were stored at -80°C till the day of the analysis. Standards and samples were then analyzed following the manufacturer's protocol (ELISA sandwich method) and by reading the absorbance with the EnVision plate reader (EnVision, PerkinElmer, Inc., Waltham, MA, USA) at 450 nm. The results were analyzed as pmol of formed mTOR or NF-κB per mL.

[5] = test system: LAT1; details: human breast adenocarcinoma cells (MCF-7); previously determined values; cited from earlier work
[6] = mouse brain in vivo; previous study; cited from earlier work
[7] = mouse brain S9 subcellular fraction, 30 min end point, mean ± SD, n = 3

T1 sequence (Q9Z127 whole entry): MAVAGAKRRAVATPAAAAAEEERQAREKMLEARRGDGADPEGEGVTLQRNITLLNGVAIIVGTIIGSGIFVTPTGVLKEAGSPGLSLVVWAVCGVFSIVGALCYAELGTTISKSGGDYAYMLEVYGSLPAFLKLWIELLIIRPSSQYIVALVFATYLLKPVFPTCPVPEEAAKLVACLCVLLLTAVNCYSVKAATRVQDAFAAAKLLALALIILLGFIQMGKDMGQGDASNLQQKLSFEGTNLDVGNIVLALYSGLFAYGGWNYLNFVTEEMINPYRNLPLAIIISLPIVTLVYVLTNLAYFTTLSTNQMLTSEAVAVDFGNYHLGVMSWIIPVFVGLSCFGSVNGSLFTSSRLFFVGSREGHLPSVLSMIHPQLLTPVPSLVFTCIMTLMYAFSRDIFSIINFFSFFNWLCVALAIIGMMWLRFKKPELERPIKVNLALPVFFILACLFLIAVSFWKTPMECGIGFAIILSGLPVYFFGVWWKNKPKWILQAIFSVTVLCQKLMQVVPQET
T1 sequence (P10852 whole entry partner): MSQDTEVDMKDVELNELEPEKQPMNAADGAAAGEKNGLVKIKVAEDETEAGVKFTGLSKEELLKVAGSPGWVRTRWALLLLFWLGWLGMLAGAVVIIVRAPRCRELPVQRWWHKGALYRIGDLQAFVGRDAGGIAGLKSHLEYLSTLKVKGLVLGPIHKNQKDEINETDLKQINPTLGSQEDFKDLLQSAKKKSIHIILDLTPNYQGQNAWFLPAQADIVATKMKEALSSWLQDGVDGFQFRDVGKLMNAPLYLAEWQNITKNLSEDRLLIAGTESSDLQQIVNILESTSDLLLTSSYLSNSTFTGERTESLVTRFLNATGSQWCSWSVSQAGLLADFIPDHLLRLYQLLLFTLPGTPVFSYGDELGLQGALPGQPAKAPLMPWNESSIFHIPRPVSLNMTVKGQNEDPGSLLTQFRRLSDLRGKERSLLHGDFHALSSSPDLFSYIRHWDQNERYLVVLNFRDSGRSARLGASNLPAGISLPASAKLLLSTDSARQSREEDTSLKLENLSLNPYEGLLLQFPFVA

| Structure (SMILES) | Primary transport mechanism (LAT1) K m [1] | Primary transport mechanism (LAT1) V max [1] | Secondary transport mechanism (OATP/OAT) K m [2] | Secondary transport mechanism (OATP/OAT) V max [2] | IC50 [3, 7] | Reduction of total amount of mTOR [4] | IC50 [5] | FA released in the brain [6] | Vmax of AChE activity in the presence of derivative (Hanes-Woolf plot) [3] | Increase of the amount of mTOR [4] | AChE IC50 value [3, 7] |
| --- | --- | --- | --- | --- | --- | --- | --- | --- | --- | --- | --- |
| COc1cc(C=CC(=O)Nc2cccc(CC(N)C(=O)O)c2)ccc1O (stereo not drawn) [FA-derivative 2] | 4.2 ± 0.8 µM | 0.013 ± 0.001 nmol/min/mg protein | 153.8 ± 15.0 µM | 0.172 ± 0.013 nmol/min/mg protein | 25.2 ± 1.43 µM | approximately 32% | 1.1 µM | less than 5% | – | – | – |
| COc1cc(C=CC(=O)Oc2cccc(CC(N)C(=O)O)c2)ccc1O (stereo not drawn) [FA-derivative 3] | Autoactivation | Autoactivation | Autoactivation | Autoactivation | 66.2 ± 1.23 µM | approximately 14% | – | – | 2.09 nmol/min/mg | – | – |
| COc1cc(C=CC(=O)NCc2cccc(CC(N)C(=O)O)c2)ccc1O (stereo not drawn) [FA-derivative 1] | 4.1 ± 2.1 µM | 0.008 ± 0.002 nmol/min/mg protein | 101.1 ± 19.7 µM | 0.033 ± 0.402 nmol/min/mg protein | 16.3 ± 1.52 µM | – | 14.2 µM | did not release any FA | 2.12 nmol/min/mg | approximately 28% | – |
| COc1cc(/C=C/C(=O)O)ccc1O [FA, trans-4-hydroxy-3-methoxycinnamic acid, reference compound] | Autoactivation | Autoactivation | Autoactivation | Autoactivation | – | did not affect | – | – | – | – | No inhibition |
